≈ marks a conversion by molar mass, not a printed value. Like-named read-outs stand apart in the source and are kept apart here.
Assays:
[1] = Solubility of selected materials in water, expressed in percent by weight at 20° C.; assay type: physicochemical
[2] = Solubility of water in the material, percent by weight at 20° C.; assay type: physicochemical; settings: water dissolved in the additive
[3] = Solubility of the material in heptane; assay type: physicochemical; settings: 20° C.
[4] = 20° C.; cited from earlier work
[5] = Surface tension as measured by the duNouy tensiometer device; assay type: physicochemical
From the text: In continuous dampening systems, the dampening solution has a surface tension of from about 40 to 50 dynes/cm or less as measured by the duNouy tensiometer device. Isopropyl alcohol has an undiluted surface tension of about 21 dynes/cm and isopropyl alcohol at about 10 to 30 percent by volume in water has a surface tension of between 40 to 50 dynes/cm. […] The point where the optimum ink-water balance control is obtained depends on a combination of complicated factors not yet precisely known. These factors include the design and speed of the press, design of the dampening system, the nature and amount of concentrates that are used in the dampening solution, the nature of the form being printed and the experience of the operator. A typical lower limit of effective use of isopropyl alcohol in continuous flow dampening systems is between about 10 to 15 percent by volume. This corresponds to surface tension values in the range of about 40 to 50 dyne/cm.

[6] = cited from earlier work

SMILES: CCCCCCOCCO [n-hexyl Cellosolve, n-hexoxyethylene glycol]
- Sol. in Water [1]: 1.0 percent by weight
- Sol. of Water in (material) [2]: 19 percent by weight
- Sol. in Heptane [3]: Complete

SMILES: CC(C)O [isopropyl alcohol]
- vapor pressure [4]: about 30 mm of Hg
- surface tension ([5]; about 10 to 30 percent by volume in water): 40 to 50 dynes/cm
- surface tension ([5]; lower limit of effective use, about 10 to 15 percent by volume): 40 to 50 dyne/cm
- surface tension ([5]; undiluted): about 21 dynes/cm
- heat of vaporization ([6]; at its boiling point of 82° C.): 164 callories/gm

SMILES: O [water]
- vapor pressure [4]: ~18 mm of Hg
- heat of vaporization ([6]; at 100° C.): 540 calories/gm

SMILES: CCCC(O)C(CC)CO (stereo not drawn) [2-ethyl-1,3-hexanediol]
- solubility ([1]; water, read-out: Sol. in Water): 42 mg/mL (≈ 287 mM)
- Sol. of Water in (material) [2]: 12 percent by weight
